Data on 2 molecules can be found in publication PMC11923649, “Novel C-2 Aromatic Heterocycle-Substituted Triterpenoids Inhibit Hedgehog Signaling in GLI1 Overexpression Cancer Cells” (ACS Omega, 2025).

The subject of assay [1] is HCT116 p53–/–. In words: MTS cytotoxicity assay, 72 h, HCT116 p53–/–. The assay is classed as cell-based. As to conditions: Homo sapiens, HCT-116, 72 h. The method, boiled down:
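Cells were seeded and, the next day, exposed to compounds at 50–0.0975 μmol/L in 2-fold dilutions for 72 h at 37 °C, 5% CO2. MTS/phenazine methosulfate was then added for 1–4 h, absorbance was read at 490 nm, and IC50 values were derived.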

Assay [2] relates to Gli-mediated transcription (U-87 MG-Gli-FLuc reporter). In words: U-87 MG-Gli-FLuc reporter assay. As to conditions: 24 h, 12.5–0.78 μmol/L; compared with GANT-61 at equimolar concentration. It is filed as cell-based, human. The procedure: A possible direct inhibition of the reporter (Fluc) and luminescence itself, which could lead to false positive results, was also ruled out in a cellular as well as a noncellular model (data not shown).
Figure 1 Effect of compounds 11a, 11b, and positive control GANT-61 on Gli1 activation and cell viability measured using the U-87 MG-Gli-FLuc reporter assay. Data are expressed as percentages of control (100%) and represent the mean of three independent experiments with the standard deviation. To distinguish specific inhibition of Gli activation from a nonspecific cellular response, an MTS assay was performed simultaneously under the same conditions in 96-well transparent plates. Statistical analysis of Gli1 activity was performed using one-sample Student’s t-test (mu = 100): *, p < 0.05; **, p < 0.01. The same analysis was used to assess cytotoxicity by MTS assay: #, p < 0.05; ##, p < 0.01.
The U-87 MG-Gli-FLuc reporter cell line was developed from the human glioblastoma line U-87 MG obtained from ATCC and cultured in EMEM medium supplemented with 10% FBS, 1 mmol/L sodium pyruvate, and a 1 mmol/L nonessential amino acid mixture. […] Panels were placed on a shaker to achieve complete cell lysis, and luminescence was measured after 3 min using an EnVision plate reader.
For orientation: In a reporter assay the amount or activity of a reporter protein is the signal.

The term IC50 denotes the point on the concentration scale where inhibition reaches its midpoint. Take `C=C(C)[C@@H]1CC[C@]2(C(=O)O)CC[C@]3(C)C(CCC4[C@@]5(C)C=C(c6ccco6)C(=O)C(C)(C)C5CC[C@]43C)C12` (stereo partly drawn) [Compound 11a, 2-(Furan-2-yl)-3-oxolupa-1,20(29)-dien-28-oic acid]: the 50% inhibitory concentration (IC50) was found to be 12 µM in assay [1] (Table 1) and 12.4 µM in assay [1] (full Table S1). For the same molecule, the Gli transcriptional activity entry in assay [2] is “inhibited Gli transcriptional activity in a dose-response manner”.
With `C=C(C)[C@@H]1CC[C@]2(C(=O)O)CC[C@]3(C)C(CCC4[C@@]5(C)C=C(c6ccoc6)C(=O)C(C)(C)C5CC[C@]43C)C12` (stereo partly drawn) [Compound 11b, 2-(Furan-3-yl)-3-oxolupa-1,20(29)-dien-28-oic acid], the IC50 came out at 14 µM in assay [1] (Table 1) and 13.5 µM in assay [1] (full Table S1). The Gli transcriptional activity entry in assay [2] is listed as “inhibited Gli transcriptional activity in a dose-response manner”.
